Test results reported in US10368545B2, “Substituted 2-thioimidazolylcarboxamides as pesticides” (BAYER CROPSCIENCE AKTIENGESELLSCHAFT, priority 2015, dated 2019).
“And” between values parts separate entries of the source, which are not always exact repeats. Identical values can stand only once.

tested on: not listed separately; experiment: log P by HPLC on reversed-phase C18 columns (OECD Guideline 117); assay type: physicochemical; details: acidic range, pH 2.7, 0.1% aqueous formic acid / acetonitrile
Method: The log P values were determined in accordance with OECD Guideline 117 (EC Directive 92/69/EEC) by HPLC (high-performance liquid chromatography) using reversed-phase (RP) columns (C18), by the following methods:
[a] The LC-MS determination in the acidic range was carried out at pH 2.7 with 0.1% aqueous formic acid and acetonitrile (contains 0.1% formic acid) as mobile phases; linear gradient from 10% acetonitrile to 95% acetonitrile.
[b] LC-MS determination in the neutral range was carried out at pH 7.8 with 0.001 molar aqueous ammonium hydrogencarbonate solution and acetonitrile as mobile phases; linear gradient from 10% acetonitrile to 95% acetonitrile.

| SMILES | log P[a] |
| --- | --- |
| Cc1cc(C)nc(Sc2ncc(C(=O)O)n2C)n1 [IV-1] | 0.81 |
| Cn1c(C(=O)O)cnc1SCC1CC1 [IV-2] | 0.62 |
| COC(=O)c1cnc(Sc2nc(C)cc(C)n2)n1C [VIII-1] | 1.78 |
| COC(=O)c1cnc(SCC2CC2)n1C [VIII-2] | 2.06 |
| CN(C(=O)c1cnc(Br)n1C)c1cccnc1 [XI-1] | 0.65 |

same assay, conditions: method [a]

| SMILES | logP[a] |
| --- | --- |
| CN(C(=O)c1c(Br)nc(Sc2ncccn2)n1C)c1cccnc1 [I-A-13] | 1.25 |
| CN(C(=O)c1cnc(Sc2ccccc2[N+](=O)[O-])n1C)c1cccnc1 [I-A-16] | 1.68 |
| CN(C(=O)c1cnc(SC2CCCCC2)n1C)c1cccnc1 [I-A-17] | 1.89 |
| CC(=O)CSc1ncc(C(=O)N(C)c2cccnc2)n1C [I-A-23] | 0.67 and 0.71 |
| CCOC(=O)CSc1ncc(C(=O)N(C)c2cccnc2)n1C [I-A-24] | 1.20 |
| COC(=O)CSc1ncc(C(=O)N(C)c2cccnc2)n1C [I-A-25] | 0.88 |
| CN(C(=O)c1cnc(SCC(=O)C(C)(C)C)n1C)c1cccnc1 [I-A-28] | 1.53 |
| CN(C(=O)c1cnc(SCC(=O)O)n1C)c1cccnc1 [I-A-29] | 0.28 |
| CN(C(=O)c1cnc(SCC(=O)C2CC2)n1C)c1cccnc1 [I-A-31] | 0.97 |
| CN(C(=O)c1cnc(SCC(N)=O)n1C)c1cccnc1 [I-A-32] | 0.11 |
| CN(C)C(=O)CSc1ncc(C(=O)N(C)c2cccnc2)n1C [I-A-34] | 0.59 |
| CCSc1ncc(C(=O)Nc2cccnc2)n1C [I-A-41] | 0.71 |
| CNC(=O)CS(=O)(=O)c1ncc(C(=O)N(C)c2cccnc2)n1C [I-A-42] | 0.35 |
| CN(C(=O)c1cnc(Sc2ccc(C(C)(C)C)cc2)n1C)c1cccnc1 [I-A-63] | 2.75 |
| CN(C)C(=O)c1ccccc1Sc1ncc(C(=O)N(C)c2cccnc2)n1C [I-A-67] | 1.17 |
| CN(C(=O)c1cnc(Sc2cccc([N+](=O)[O-])c2)n1C)c1cccnc1 [I-A-68] | 1.71 |
| COc1ccccc1Sc1ncc(C(=O)N(C)c2cccnc2)n1C [I-A-72] | 1.59 |
| CN(C(=O)c1cnc(S(=O)(=O)c2cccc(Cl)c2)n1C)c1cccnc1 [I-A-73] | 1.81 |
| CN(C(=O)c1cnc([S+]([O-])c2cccc(Cl)c2)n1C)c1cccnc1 (centres unmarked) [I-A-74] | 1.45 |
| CN(C(=O)c1cnc([S+]([O-])c2ccc(C(C)(C)C)cc2)n1C)c1cccnc1 (centres unmarked) [I-A-75] | 2.14 |
| CN(C(=O)c1cnc(S(=O)(=O)c2ccc(C(C)(C)C)cc2)n1C)c1cccnc1 [I-A-76] | 2.53 |
| COc1ccc(S(=O)(=O)c2ncc(C(=O)N(C)c3cccnc3)n2C)cc1 [I-A-81] | 1.53 |
| CN(C(=O)c1cnc(S(=O)(=O)c2ccccn2)n1C)c1cccnc1 [I-A-85] | 1.01 |
| CN(C(=O)c1cnc(S(=O)(=O)c2ccccc2)n1C)c1cccnc1 [I-A-88] | 1.37 |

same assay, conditions: method [b]

| SMILES | logP[b] |
| --- | --- |
| CN(C(=O)c1c(Br)nc(Sc2ncccn2)n1C)c1cccnc1 [I-A-13] | 1.31 |
| CN(C(=O)c1cnc(Sc2ccccc2[N+](=O)[O-])n1C)c1cccnc1 [I-A-16] | 1.78 |
| CN(C(=O)c1cnc(SC2CCCCC2)n1C)c1cccnc1 [I-A-17] | 2.26 |
| CCOC(=O)CSc1ncc(C(=O)N(C)c2cccnc2)n1C [I-A-24] | 1.34 |
| COC(=O)CSc1ncc(C(=O)N(C)c2cccnc2)n1C [I-A-25] | 1.09 |
| CN(C(=O)c1cnc(SCC(=O)C(C)(C)C)n1C)c1cccnc1 [I-A-28] | 1.78 |
| CN(C(=O)c1cnc(SCC(=O)O)n1C)c1cccnc1 [I-A-29] | 1.05 |
| CN(C(=O)c1cnc(SCC(=O)C2CC2)n1C)c1cccnc1 [I-A-31] | 1.28 |
| CN(C(=O)c1cnc(SCC(N)=O)n1C)c1cccnc1 [I-A-32] | 0.50 |
| CN(C)C(=O)CSc1ncc(C(=O)N(C)c2cccnc2)n1C [I-A-34] | 0.81 |
| CCSc1ncc(C(=O)Nc2cccnc2)n1C [I-A-41] | 1.54 |
| CNC(=O)CS(=O)(=O)c1ncc(C(=O)N(C)c2cccnc2)n1C [I-A-42] | 0.55 |
| CN(C(=O)c1cnc(Sc2ccc(C(C)(C)C)cc2)n1C)c1cccnc1 [I-A-63] | 2.92 |
| CN(C)C(=O)c1ccccc1Sc1ncc(C(=O)N(C)c2cccnc2)n1C [I-A-67] | 1.25 |
| CN(C(=O)c1cnc(Sc2cccc([N+](=O)[O-])c2)n1C)c1cccnc1 [I-A-68] | 1.77 |
| COc1ccccc1Sc1ncc(C(=O)N(C)c2cccnc2)n1C [I-A-72] | 1.74 |
| CN(C(=O)c1cnc(S(=O)(=O)c2cccc(Cl)c2)n1C)c1cccnc1 [I-A-73] | 1.87 |
| CN(C(=O)c1cnc([S+]([O-])c2cccc(Cl)c2)n1C)c1cccnc1 (centres unmarked) [I-A-74] | 1.55 |
| CN(C(=O)c1cnc([S+]([O-])c2ccc(C(C)(C)C)cc2)n1C)c1cccnc1 (centres unmarked) [I-A-75] | 2.19 |
| CN(C(=O)c1cnc(S(=O)(=O)c2ccc(C(C)(C)C)cc2)n1C)c1cccnc1 [I-A-76] | 2.55 |
| COc1ccc(S(=O)(=O)c2ncc(C(=O)N(C)c3cccnc3)n2C)cc1 [I-A-81] | 1.58 |
| CN(C(=O)c1cnc(S(=O)(=O)c2ccccn2)n1C)c1cccnc1 [I-A-85] | 1.10 |
| CN(C(=O)c1cnc(S(=O)(=O)c2ccccc2)n1C)c1cccnc1 [I-A-88] | 1.47 |

same assay, conditions: neutral range, pH 7.8, 0.001 molar aqueous ammonium hydrogencarbonate / acetonitrile

| SMILES | log P[n] |
| --- | --- |
| Cn1c(C(=O)O)cnc1SCC1CC1 [IV-2] | −0.18 |
| COC(=O)c1cnc(Sc2nc(C)cc(C)n2)n1C [VIII-1] | 1.80 |
| COC(=O)c1cnc(SCC2CC2)n1C [VIII-2] | 2.26 |
| CN(C(=O)c1cnc(Br)n1C)c1cccnc1 [XI-1] | 0.93 |

tested on: green peach aphid (Myzus persicae); experiment: Myzus persicae spray test (Chinese cabbage leaf discs); assay type: in vivo; details: application rate 500 g/ha; after 5 or 6 days; Chinese cabbage leaf discs
Method: Myzus persicae—Spray Test
Solvent: 78 parts by weight of acetone • • 1.5 parts by weight of dimethylformamide
Emulsifier: alkylaryl polyglycol ether
To produce a suitable active compound preparation, 1 part by weight of active compound is dissolved using the stated parts by weight of solvent and made up with water containing an emulsifier concentration of 1000 ppm until the desired concentration is attained. To produce further test concentrations, the preparation is diluted with emulsifier-containing water.
Discs of Chinese cabbage leaves (Brassica pekinensis) infested by all stages of the green peach aphid (Myzus persicae) are sprayed with an active compound preparation of the desired concentration.
After 5 or 6 days, the efficacy in % is determined. 100% means that all the aphids were killed; 0% means that no aphids were killed.

| SMILES | efficacy (aphids killed) [%] |
| --- | --- |
| CN(C(=O)c1cnc(Sc2ccccc2[N+](=O)[O-])n1C)c1cccnc1 [I-A-16] | 90 |
| CC(=O)CSc1ncc(C(=O)N(C)c2cccnc2)n1C [I-A-23] | 90 |
| CCOC(=O)CSc1ncc(C(=O)N(C)c2cccnc2)n1C [I-A-24] | 90 |
| COC(=O)CSc1ncc(C(=O)N(C)c2cccnc2)n1C [I-A-25] | 90 |
| CN(C(=O)c1cnc(SCC(=O)C(C)(C)C)n1C)c1cccnc1 [I-A-28] | 90 |
| CN(C(=O)c1cnc(SCC(=O)C2CC2)n1C)c1cccnc1 [I-A-31] | 90 |
| CCSc1ncc(C(=O)Nc2cccnc2)n1C [I-A-41] | 90 |
| CN(C)C(=O)c1ccccc1Sc1ncc(C(=O)N(C)c2cccnc2)n1C [I-A-67] | 90 |
| CN(C(=O)c1cnc(Sc2cccc([N+](=O)[O-])c2)n1C)c1cccnc1 [I-A-68] | 100 |
| CN(C(=O)c1cnc(S(=O)(=O)c2cccc(Cl)c2)n1C)c1cccnc1 [I-A-73] | 90 |
| CN(C(=O)c1cnc([S+]([O-])c2cccc(Cl)c2)n1C)c1cccnc1 (centres unmarked) [I-A-74] | 90 |
| CN(C(=O)c1cnc([S+]([O-])c2ccc(C(C)(C)C)cc2)n1C)c1cccnc1 (centres unmarked) [I-A-75] | 90 |
